Laboratory results taken from the NIST ThermoML archive (doi:10.1021/je049585t).
Numbers after ± are expanded uncertainties.

Tests used:
[1] = Molar enthalpy of transition or fusion; settings: Crystal
[2] = Crystal

## CC1=CCC2C(=O)OC(=O)C2C1 (configuration not stated) [4-methyl-cyclohex-4-ene-1, 2-dicarboxylic acid anhydride]
[1]
  Molar enthalpy of transition or fusion: 17.67 ± 0.1 kJ/mol
[2]
  Normal melting temperature: 62.39 ± 0.83 °C
